Source: patent US20240307419A1, “CONFORMATIONALLY-CONSTRAINED INHIBITORS OF 3C OR 3C-LIKE PROTEASES” (priority 2021, published 2024)

molecular target: SARS-CoV-2 3CLpro (Severe acute respiratory syndrome coronavirus 2 (2019-nCoV) (SARS-CoV-2), UniProt P0DTD1); experiment: biochemical; assay type: biochemical; settings: read-out: IC50

Structure (SMILES)	IC50 [µM]
CCCCCC12CCC(COC(=O)N[C@@H](CC(C)C)C(=O)N[C@H](C=O)C[C@@H]3CCNC3=O)(CC1)CC2 [Compound 2i, (4-Pentylbicyclo[2.2.2]octan-1-yl)methyl ((S)-4-methyl-1-oxo-1-(((S)-1-oxo-3-((S)-2-oxopyrrolidin-3-yl)propan-2-yl)amino)pentan-2-yl)carbamate]	0.27 ± 0.02
CC(C)C[C@H](NC(=O)OCC12CC3CC(CC(C3)C1)C2)C(=O)N[C@@H](C[C@H]1CCNC1=O)C(O)S(=O)(=O)O (stereo partly drawn) [Compound 3l, Sodium (2S)-2-((S)-2-(((((3S,5S,7S)-adamantan-1-yl)methoxy-d2)carbonyl)amino)-4-methylpentanamido)-1-hydroxy-3-((S)-2-oxopyrrolidin-3-yl)propane-1-sulfonate]	0.27 ± 0.04
CC(C)C[C@H](NC(=O)OCC12CC3CC(CC(C3)C1)C2)C(=O)N[C@H](C=O)C[C@H]1CCNC1=O [Compound 2l, ((3S,5S,7S)-Adamantan-1-yl)methyl-d2 ((S)-4-methyl-1-oxo-1-(((S)-1-oxo-3-((S)-2-oxopyrrolidin-3-yl)propan-2-yl)amino)pentan-2-yl)carbamate]	0.29 ± 0.04
CC(C)C[C@H](NC(=O)OC[C@@]12C[C@@H]3C[C@@H](C[C@@](O)(C3)C1)C2)C(=O)N[C@H](C=O)C[C@@H]1CCNC1=O [Compound 2o, ((1r,3R,5R,7S)-3-Hydroxyadamantan-1-yl)methyl-d2 ((S)-4-methyl-1-oxo-1-(((S)-1-oxo-3-((S)-2-oxopyrrolidin-3-yl)propan-2-yl)amino)pentan-2-yl)carbamate]	0.74 ± 0.26
CCCCCC12CCC(COC(=O)N[C@@H](CC(C)C)C(=O)N[C@@H](C[C@@H]3CCNC3=O)C(O)S(=O)(=O)O)(CC1)CC2 (stereo partly drawn) [Compound 3i, Sodium (2S)-1-hydroxy-2-((S)-4-methyl-2-((((4-pentylbicyclo[2.2.2]octan-1-yl)methoxy)carbonyl)amino)pentanamido)-3-((S)-2-oxopyrrolidin-3-yl)propane-1-sulfonate]	0.3 ± 0.02
[2H]C([2H])(OC(=O)N[C@@H](CC(C)C)C(=O)N[C@@H](C[C@@H]1CCNC1=O)C(O)S(=O)(=O)[O-])C12CCC(CCCCC)(CC1)CC2.[Na+] (stereo partly drawn) [Compound 3j, Sodium (2S)-1-hydroxy-2-((S)-4-methyl-2-((((4-pentylbicyclo[2.2.2]octan-1-yl)methoxy-d2)carbonyl)amino)pentanamido)-3-((S)-2-oxopyrrolidin-3-yl)propane-1-sulfonate]	0.31 ± 0.06
CC(C)C[C@H](NC(=O)OCC12CC3CC(CC(O)(C3)C1)C2)C(=O)N[C@@H](C[C@H]1CCNC1=O)C(O)S(=O)(=O)O (stereo partly drawn) [Compound 3o, Sodium (2S)-1-hydroxy-2-((S)-2-(((((1r,3R,5R,7S)-3-hydroxyadamantan-1-yl)methoxy-d2)carbonyl)amino)-4-methylpentanamido)-3-((S)-2-oxopyrrolidin-3-yl)propane-1-sulfonate]	0.78 ± 0.18

tested on: CRFK cells; experiment: not given; settings: cat

Structure (SMILES)	CC50 [µM]
CC(C)C[C@H](NC(=O)OCC1CN(S(C)(=O)=O)C1)C(=O)N[C@H](C=O)C[C@H]1CCNC1=O [Compound 17b, (1-(Methylsulfonyl)azetidin-3-yl)methyl ((S)-4-methyl-1-oxo-1-(((S)-1-oxo-3-((R)-2-oxopyrrolidin-3-yl)propan-2-yl)amino)pentan-2-yl)carbamate]	> 100
CC(C)C[C@H](NC(=O)OC1CC2(CCN(C#N)CC2)C1)C(=O)N[C@H](C=O)C[C@H]1CCNC1=O [Compound 11b, 7-Cyano-7-azaspiro[3.5]nonan-2-yl ((S)-4-methyl-1-oxo-1-(((S)-1-oxo-3-((R)-2-oxopyrrolidin-3-yl)propan-2-yl)amino)pentan-2-yl)carbamate]	> 100
CC(C)C[C@H](NC(=O)OC1CCC2(C1)CN(C(=O)OC(C)(C)C)C2)C(=O)N[C@H](C=O)C[C@H]1CCNC1=O (stereo partly drawn) [Compound 6b, Tert-butyl 6-((((S)-4-methyl-1-oxo-1-(((S)-1-oxo-3-((R)-2-oxopyrrolidin-3-yl)propan-2-yl)amino)pentan-2-yl)carbamoyl)oxy)-2-azaspiro[3.4]octane-2-carboxylate]	> 100
CC(C)C[C@H](NC(=O)OC1CN(C(=O)OC(C)(C)C)C1)C(=O)N[C@@H](C[C@H]1CCNC1=O)C(O)S(=O)(=O)O (stereo partly drawn) [Compound 12c, Sodium (2S)-2-((S)-2-((((1-(tert-butoxycarbonyl)azetidin-3-yl)oxy)carbonyl)amino)-4-methylpentanamido)-1-hydroxy-3-((R)-2-oxopyrrolidin-3-yl)propane-1-sulfonate]	> 100
CC(C)C[C@H](NC(=O)OC1CC2(CCN(C(=O)OC(C)(C)C)C2)C1)C(=O)N[C@H](C=O)C[C@H]1CCNC1=O (stereo partly drawn) [Compound 5b, Tert-butyl 2-((((S)-4-methyl-1-oxo-1-(((S)-1-oxo-3-((R)-2-oxopyrrolidin-3-yl)propan-2-yl)amino)pentan-2-yl)carbamoyl)oxy)-6-azaspiro[3.4]octane-6-carboxylate]	> 100
CC(C)C[C@H](NC(=O)OC1CN(C(=O)OC(C)(C)C)C1)C(=O)N[C@H](C=O)C[C@H]1CCNC1=O [Compound 12b, Tert-butyl 3-((((S)-4-methyl-1-oxo-1-(((S)-1-oxo-3-((R)-2-oxopyrrolidin-3-yl)propan-2-yl)amino)pentan-2-yl)carbamoyl)oxy)azetidine-1-carboxylate]	> 100
CC(C)C[C@H](NC(=O)OC1CC2(C1)CN(S(C)(=O)=O)C2)C(=O)N[C@@H](C[C@H]1CCNC1=O)C(O)S(=O)(=O)O (stereo partly drawn) [Compound 4c, Sodium (2S)-1-hydroxy-2-((S)-4-methyl-2-((((2-(methylsulfonyl)-2-azaspiro[3.3]heptan-6-yl)oxy)carbonyl)amino)pentanamido)-3-((R)-2-oxopyrrolidin-3-yl)propane-1-sulfonate]	> 100
CC(C)C[C@H](NC(=O)OCC1CN(C(=O)C2CC3CCC2C3)C1)C(=O)N[C@@H](C[C@H]1CCNC1=O)C(O)S(=O)(=O)O (stereo partly drawn) [Compound 16c, Sodium (2S)-2-((2S)-2-((((1-(bicyclo[2.2.1]heptane-2-carbonyl)azetidin-3-yl)methoxy)carbonyl)amino)-4-methylpentanamido)-1-hydroxy-3-((R)-2-oxopyrrolidin-3-yl)propane-1-sulfonate]	> 100
CC(C)C[C@H](NC(=O)OC1CC2(CCN(C#N)CC2)C1)C(=O)N[C@@H](C[C@H]1CCNC1=O)C(O)S(=O)(=O)O (stereo partly drawn) [Compound 11c, Sodium (2S)-2-((S)-2-((((7-cyano-7-azaspiro[3.5]nonan-2-yl)oxy)carbonyl)amino)-4-methylpentanamido)-1-hydroxy-3-((R)-2-oxopyrrolidin-3-yl)propane-1-sulfonate]	> 100
CC(C)C[C@H](NC(=O)OC1(C)CN(C(=O)OC(C)(C)C)C1)C(=O)N[C@@H](C[C@H]1CCNC1=O)C(O)S(=O)(=O)O (stereo partly drawn) [Compound 13c, Sodium (2S)-2-((S)-2-((((1-(tert-butoxycarbonyl)-3-methylazetidin-3-yl)oxy)carbonyl)amino)-4-methylpentanamido)-1-hydroxy-3-((R)-2-oxopyrrolidin-3-yl)propane-1-sulfonate]	> 100
CC(C)C[C@H](NC(=O)OCC1CN(C(=O)C2CC3CCC2C3)C1)C(=O)N[C@H](C=O)C[C@H]1CCNC1=O (stereo partly drawn) [Compound 16b, (1-(Bicyclo[2.2.1]heptane-2-carbonyl)azetidin-3-yl)methyl ((S)-4-methyl-1-oxo-1-(((S)-1-oxo-3-((R)-2-oxopyrrolidin-3-yl)propan-2-yl)amino)pentan-2-yl)carbamate]	> 100
CC(C)C[C@H](NC(=O)OC1CC2(CCN(C(=O)C(C)C)CC2)C1)C(=O)N[C@H](C=O)C[C@H]1CCNC1=O [Compound 8b, 7-Isobutyryl-7-azaspiro[3.5]nonan-2-yl ((S)-4-methyl-1-oxo-1-(((S)-1-oxo-3-((R)-2-oxopyrrolidin-3-yl)propan-2-yl)amino)pentan-2-yl)carbamate]	> 100
CC(C)C[C@H](NC(=O)OC1CC2(CCN(C(=O)C(C)C)CC2)C1)C(=O)N[C@@H](C[C@H]1CCNC1=O)C(O)S(=O)(=O)O (stereo partly drawn) [Compound 8c, Sodium (2S)-1-hydroxy-2-((S)-2-((((7-isobutyryl-7-azaspiro[3.5]nonan-2-yl)oxy)carbonyl)amino)-4-methylpentanamido)-3-((R)-2-oxopyrrolidin-3-yl)propane-1-sulfonate]	> 100
CC(C)C[C@H](NC(=O)OC1CCC2(C1)CN(C(=O)OC(C)(C)C)C2)C(=O)N[C@@H](C[C@H]1CCNC1=O)C(O)S(=O)(=O)O (stereo partly drawn) [Compound 6c, Sodium (2S)-2-((2S)-2-((((2-(tert-butoxycarbonyl)-2-azaspiro[3.4]octan-6-yl)oxy)carbonyl)amino)-4-methylpentanamido)-1-hydroxy-3-((R)-2-oxopyrrolidin-3-yl)propane-1-sulfonate]	> 100
CC(C)C[C@H](NC(=O)OCC1CN(C(=O)Cc2ccccc2)C1)C(=O)N[C@H](C=O)C[C@H]1CCNC1=O [Compound 15b, (1-(2-Phenylacetyl)azetidin-3-yl)methyl ((S)-4-methyl-1-oxo-1-(((S)-1-oxo-3-((R)-2-oxopyrrolidin-3-yl)propan-2-yl)amino)pentan-2-yl)carbamate]	> 100
CC(C)C[C@H](NC(=O)OC1(C)CN(C(=O)OC(C)(C)C)C1)C(=O)N[C@H](C=O)C[C@H]1CCNC1=O [Compound 13b, Tert-butyl 3-methyl-3-((((S)-4-methyl-1-oxo-1-(((S)-1-oxo-3-((R)-2-oxopyrrolidin-3-yl)propan-2-yl)amino)pentan-2-yl)carbamoyl)oxy)azetidine-1-carboxylate]	> 100
CC(C)C[C@H](NC(=O)OCC1CN(C(=O)Cc2ccccc2)C1)C(=O)N[C@@H](C[C@H]1CCNC1=O)C(O)S(=O)(=O)O (stereo partly drawn) [Compound 15c, Sodium (2S)-1-hydroxy-2-((S)-4-methyl-2-((((1-(2-phenylacetyl)azetidin-3-yl)methoxy)carbonyl)amino)pentanamido)-3-((R)-2-oxopyrrolidin-3-yl)propane-1-sulfonate]	> 100
CC(C)C[C@H](NC(=O)OC1CC2(C1)CN(S(C)(=O)=O)C2)C(=O)N[C@H](C=O)C[C@H]1CCNC1=O [Compound 4b, 2-(Methylsulfonyl)-2-azaspiro[3.3]heptan-6-yl ((S)-4-methyl-1-oxo-1-(((S)-1-oxo-3-((R)-2-oxopyrrolidin-3-yl)propan-2-yl)amino)pentan-2-yl)carbamate]	> 100
